Reference: patent publication US20170158745A1, “IDR PEPTIDE COMPOSITIONS AND USE THEREOF FOR TREATMENT OF TH2-DYSREGULATED INFLAMMATORY CONDITIONS” (University of Manitoba, priority 2013, published 2017)
Residues, ends and D or L forms follow the SMILES beside them.

Tests used:
Type in all cases: in vivo, mouse (Balb/c)
Conditions in all cases: BALF, serum or lung tissue extract
IL-1β = assay: Induction of IL-1β by the peptide itself
TNFα = assay: Induction of TNFα by the peptide itself
IL-4 = assay: Induction of IL-4 by the peptide itself
IL-5 = assay: Induction of IL-5 by the peptide itself

CC[C@H](C)[C@H](NC(=O)[C@H](CCCNC(=N)N)NC(=O)[C@H](Cc1c[nH]c2ccccc12)NC(=O)[C@@H](NC(=O)[C@@H](NC(=O)[C@H](CC(C)C)NC(=O)[C@H](Cc1c[nH]c2ccccc12)NC(=O)[C@H](CCCNC(=N)N)NC(=O)[C@H](CCC(N)=O)NC(=O)[C@@H](N)C(C)C)[C@@H](C)CC)C(C)C)C(=O)N[C@@H](CCCNC(=N)N)C(=O)N[C@@H](CCCCN)C(N)=O [IDR 1002, VQRWLIVWRIRK-NH2] (H-VQRWLIVWRIRK-NH2)
did not induce: induction of IL-1β (IL-1β) | induction of TNFα (TNFα) | induction of IL-4 (IL-4) | induction of IL-5 (IL-5)
